Test system: Bmi-1 protein
Assay: Sandwich ELISA Assay: Bmi-1 protein level in HT-1080 cells treated with test compounds
Type: cell-based
Description: Cell Seeding and Compound Treatment (Day 1):
HT-1080 cells were seeded at 8000 cells/well (50 μL) in 96-well tissue culture plates. After the cells became adherent (3-4 hours), 2× diluted stocks of test compounds in 50 μL DMEM containing 1% DMSO (final DMSO concentration was 0.5%) were added and the plates were incubated at 37° C. under 5% CO2 for 40-48 hours.
ELISA Plate First Antibody Preparation (Day 2):
The First Antibody (Millipore Mouse, monoclonal to mouse Bmi-1, clone F6, catalog #05-637) diluted to 2 μg/mL in PBS was added (100 μL) to each well of a Nunc MaxiSorp 96-well ELISA plate. The plate was covered with a plate seal and allowed to stand overnight.
Cell Lysate Preparation (Day 3):
Fresh Lysis buffer (1×) was prepared on the day of the assay as follows: 1 mM EDTA, 150 mM NaCl, 0.5% Triton-X 100, 10 mM NaF, 20 mM B-Glycerophosphate, 1 mM DTT (in PBS, pH 7.2-7.4) and HALT protease inhibitor cocktail (1×) (Pierce #78410).
Lysis Buffer (1×, 40 μL) was added to each well and the plate was shaken for 5-10 minutes on an orbital shaker to allow cell lysis, then diluent (1% BSA in PBS in 0.5% NP40) (100 μL) was added to each well.
A standard curve was prepared at the following Bmi-1 concentrations: 8000, 4000, 2000, 1000, 500, 250, 125 and 0 pg/mL. The Bmi-1 Recombinant Protein Standard (Novus Biologicals PCGF4 Recombinant Protein (P01), catalog # H00000648-P01) used to prepare the standard curve was stored at −80° C. On first thaw, the Recombinant Protein Standard was diluted to 10 μg/μL in Blocking Buffer (1% BSA in PBS; BSA: Fisher Scientific Catalog #1600-100). Aliquots were taken and refrozen at −80° C. The aliquots may be kept at 4° C. and reused after first thaw, but only within 1-2 weeks. The Recombinant Protein Standard contains a GST-fusion tag that appears at approximately 70 Kda on Western Blot.
The prepared ELISA plate was washed 3× with Wash Buffer (0.05% Tween-20 in PBS). The final wash was removed from the plate and the plate was blotted dry. Blocking Buffer (300 μL) (1% BSA in PBS) was added to each well. The plate was covered with a plate seal and incubated at room temperature for 1 hour. The blocked plate was washed 3× with Wash Buffer, then the final wash was removed and the plate was blotted dry. The previously prepared samples and standards were added (100 μL/well) and the plate was covered with a plate seal and incubated at 4° C. overnight.
The prepared ELISA plate was removed from incubation and allowed to stand at room temperature for 30 minutes, then washed and blotted dry. The Second Antibody (Cell Signaling Rabbit anti-Bmi-1, Cat# 2830) diluted to 1:600 in Blocking Buffer was added (100 μL) to each well, except as needed for background control wells. The plate was covered with a plate seal and incubated for 1.5 hrs at room temperature.
The ELISA plate was washed and blotted dry as previously described. The Third Antibody (Cell Signaling HRP conjugated anti-rabbit IgG (CellSignaling, Cat#:7074) diluted to 1:300 in Blocking Buffer was added (100 μL) to each well, except as needed for background control wells. The plate was incubated for 1 hr at room temperature.
The plate was washed and blotted dry, then a previously prepared TMB substrate (TMB substrate kit, Pierce catalog #34021) (prepared by mixing kit reagents 1:1) (100 μL) was added per well. The plate was incubated for 20-30 minutes at room temperature in the dark, then Stop Solution (2 M sulfuric acid in water) (50 μL) was added per well. The plates were read at OD450 (experimental) and OD570 (reference).

Row | SMILES | EC50 [nM]
1 | Cc1nc2ncccc2n1-c1nc(N)nc(Nc2ccc(OC(F)F)cc2)n1 [Cpd 23, N-[4-(difluoromethoxy)phenyl]-6-(2-methyl-1H-imidazo[4,5-b]pyridin-1-yl)-1,3,5-triazine-2,4-diamine] | 100 to 3000
2 | Cc1nc2ncc(F)cc2n1-c1nc(N)nc(Nc2ccc(OC(F)F)cc2)n1 [Cpd 78, N-[4-(difluoromethoxy)phenyl]-6-(6-fluoro-2-methyl-1H-imidazo[4,5-b]pyridin-1-yl)-1,3,5-triazine-2,4-diamine] | 100 to 3000
3 | CCc1nc2ccccc2n1-c1nc(Nc2ccc(OC(F)F)cc2)c[n+]([O-])n1 [Cpd 140, N-[4-(difluoromethoxy)phenyl]-3-(2-ethyl-1H-benzimidazol-1-yl)-1,2,4-triazin-5-amine 1-oxide] | 100 to 3000
4 | Nc1nc(Nc2ccc(OC(F)F)nc2)nc(-n2c(C(F)F)nc3ccccc32)n1 [Cpd 105, N-[6-(difluoromethoxy)pyridin-3-yl]-6-[2-(difluoromethyl)-1H-benzimidazol-1-yl]-1,3,5-triazine-2,4-diamine] | 10 to 100
5 | Cc1ccc(Nc2nc(N)nc(-n3c(C4CC4)nc4ccccc43)n2)cc1 [Cpd 155, 6-(2-cyclopropyl-1H-benzimidazol-1-yl)-N-(4-methylphenyl)-1,3,5-triazine-2,4-diamine] | 1 to 10
6 | Nc1nc(Nc2ccc(C(F)(F)F)cc2)nc(-n2c(C3CC3)nc3cc(F)ccc32)n1 [Cpd 65, 6-(2-cyclopropyl-5-fluoro-1H-benzimidazol-1-yl)-N-[4-(trifluoromethyl)phenyl]-1,3,5-triazine-2,4-diamine] | 100 to 3000
7 | Cc1nc2ncc(Cl)cc2n1-c1nc(N)nc(Nc2ccc(C(F)(F)F)cc2)n1 [Cpd 33, 6-(6-chloro-2-methyl-1H-imidazo[4,5-b]pyridin-1-yl)-N-[4-(trifluoromethyl)phenyl]-1,3,5-triazine-2,4-diamine] | 10 to 100
8 | N#CCc1nc2ccccc2n1-c1nc(N)nc(Nc2ccc(OC(F)F)c(F)c2)n1 [Cpd 122, [1-(4-amino-6-{[4-(difluoromethoxy)-3-fluorophenyl]amino}-1,3,5-triazin-2-yl)-1H-benzimidazol-2-yl]acetonitrile] | 100 to 3000
9 | Nc1nc(Nc2ccc(C(F)(F)F)cc2)nc(-c2c(C(F)(F)F)nc3ccc(F)cn23)n1 [Cpd 25, 6-[6-fluoro-2-(trifluoromethyl)imidazo[1,2-a]pyridin-3-yl]-N-[4-(trifluoromethyl)phenyl]-1,3,5-triazine-2,4-diamine] | 10 to 100
10 | CCc1nc2c(F)cc(F)cc2n1-c1nc(N)nc(Nc2ccc(OC(F)F)cc2)n1 [Cpd 49, N-[4-(difluoromethoxy)phenyl]-6-(2-ethyl-4,6-difluoro-1H-benzimidazol-1-yl)-1,3,5-triazine-2,4-diamine] | 10 to 100
11 | CCc1nc2cc(F)ccc2n1-c1nc(N)nc(Nc2ccc(Cl)cc2)n1 [Cpd 175, N-(4-chlorophenyl)-6-(2-ethyl-5-fluoro-1H-benzimidazol-1-yl)-1,3,5-triazine-2,4-diamine] | 100 to 3000
12 | CCc1nc2cc(F)c(F)cc2n1-c1nc(N)nc(Nc2ccc(OC(F)F)cc2)n1 [Cpd 84, N-[4-(difluoromethoxy)phenyl]-6-(2-ethyl-5,6-difluoro-1H-benzimidazol-1-yl)-1,3,5-triazine-2,4-diamine] | 10 to 100
13 | Cc1nc2c(F)cccc2n1-c1nc(N)nc(Nc2ccc(C(F)(F)F)cc2)n1 [Cpd 95, 6-(4-fluoro-2-methyl-1H-benzimidazol-1-yl)-N-[4-(trifluoromethyl)phenyl]-1,3,5-triazine-2,4-diamine] | 100 to 3000
14 | CCc1nc2ccccc2n1-c1nnc(N)c(Nc2ccc(C(F)(F)F)cc2)n1 [Cpd 142, 3-(2-ethyl-1H-benzimidazol-1-yl)-N^5-[4-(trifluoromethyl)phenyl]-1,2,4-triazine-5,6-diamine] | 100 to 3000
15 | Nc1nc(Nc2ccc(C(F)(F)F)cc2)nc(-n2c(C3CC3)nc3c(F)cccc32)n1 [Cpd 85, 6-(2-cyclopropyl-4-fluoro-1H-benzimidazol-1-yl)-N-[4-(trifluoromethyl)phenyl]-1,3,5-triazine-2,4-diamine] | 10 to 100

Source: patent publication US9975878B2, “Substituted triazine BMI-1 inhibitors” (PTC Therapeutics, Inc., priority 2013, dated 2018)
